Measured values published in US10130590B2, “Methods of treating cancer with atovaquone-related compounds” (DANA-FARBER CANCER INSTITUTE, INC., priority 2013, dated 2018).

Experiments:
[1] = system: STAT3; test: Western blot of STAT3 phosphorylation in reporter and cancer cell lines; type: cell-based, human; settings: U266, 2.5 hours; for STAT3 phosphorylation with UPR activators: tunicamycin 5 μg/ml, thapsigargin 1 μM, brefeldin A 3 μg/ml; for STAT3 phosphorylation (analogs): buparvaquone 12.5 or 25 μM, Sigma analog 1, 5, or 25 μM, relative to vehicle
Description: (§1) Western blotting was performed as previously described (Battle T E, Arbiser J, & Frank D A (2005) The natural product honokiol induces caspase dependent apoptosis in B-cell chronic lymphocytic leukemia (B-CLL) cells. Blood 106(2):690-697). Antibodies to phospho-MAPK (9101), total MAPK (9102), phospho-Y705 STAT3 (9131), phospho-S6 (2215), total S6 (2217), phospho-4E-BP1 (9451), total 4E-BP1 (9644), total RSK (9355), phospho-S6K (9234, 85 used at 1:5000), total S6K (2708), phospho-eIF2α (9721, used at 1:1000), total eIF2α (5324), ATF4 (11815, used at 1:1000), PDGFRβ (3169), IGF1Rβ (9750), EGFR (2232), and HER2 (2242) were from Cell Signaling Technology. Phospho-RSK antibody was from R&D (AF889). Antibodies to total STAT3 (sc-482) and gp130 (sc-656, used at 1:1000) were from Santa Cruz Biotechnology. Phospho-S727 STAT3 antibody was described previously (229). REDD1 antibody was from Proteintech (10638-1-AP, used at 1:1000). Antibody recognizing full-length and cleaved ATF6 was from Abcam (ab122897, used at 1:1000). Antibodies to tubulin (T5168) and beta actin (A5316) were from Sigma. All antibodies were used at 1:10000 dilution for western blot unless otherwise noted. For immunoprecipitations, cells were lysed in 500 μl lysis buffer (0.5% NP-40, 150 mM NaCl, 50 mM Tris pH 7.5, with protease and phosphatase inhibitors freshly added at 1:100 [Pierce, PI78443]) on ice for 15 minutes, then centrifuged for 10 minutes at 14,000 RPM and 4° C. The supernatant was transferred to a new tube and incubated with 10 μl JAK2 antibody (Santa Cruz sc-278) or a mix of two TYK2 antibodies, 10 μl of each (Santa Cruz sc-5271 and Cell Signaling Technology 9312). Immunoprecipitation was performed overnight at 4° C. with rotation. The next day, 75 μl of protein A/G beads (Santa Cruz sc-2003) were washed twice in lysis buffer, then incubated with immunoprecipitates overnight as before. The next day, the beads were spun down (1 min. at 7,500 RPM and 4° C.) and washed 3 times with 650 μl lysis buffer for 10 minutes at 4° C. with rotation, then boiled in 50 μl sample buffer+10% β-mercaptoethanol. For Western blot, 20 μl were loaded per lane. For detection of phospho-tyrosine, a mixture of two pan-phospho-tyrosine antibodies (Cell Signaling Technology 9411 and 9416, 1:1000 of each) was used. Antibody to phospho-Y1007/1008 JAK2 was from Cell Signaling 86 Technology (3771, used at 1:1000). Antibody to phospho-Y570 JAK2 was from Millipore (09-241, used at 1:1000). Luminometric Assays Luciferase reporter cell lines were described previously (186). Firefly luciferase values were normalized by concurrent cell viability. Cell viability was measured as ATP-dependent luminescence by Cell Titer Glo (Promega).
The mechanism by which atovaquone inhibits STAT3 was investigated. STAT3-luc reporter cells were pre-treated with atovaquone (20 μM) for 1 hr, and then stimulated with IL-6 (10 ng/ml) for 15 minutes, 30 minutes, 1 hours, or 2 hours. Since STAT3 transcriptional activity is critically dependent on tyrosine phosphorylation, Western blotting was performed to see if atovaquone affected STAT3 phosphorylation. […] Next, atovaquone was used to treat U266 (2.5 hours), HEL (6 hours), or INA-6 cells (4 hours). […] In U266 and INA-6 cells, the source of STAT3 activation is JAK-dependent IL-6 signaling, while in HEL cells, STAT3 is activated by mutant JAK2-V617F. Given that atovaquone inhibits constitutive STAT3 activation in cancer cells, it was asked whether atovaquone inhibits expression of endogenous STAT3 target genes in this context.
Since atovaquone reduced gp130 expression at the cell surface, it was asked whether this effect was accompanied by reduced total gp130 in the cell. To address this question, a time course of atovaquone treatment was performed and total cellular gp130 was measured by Western blotting in U266 cells treated with atovaquone at 20 μM. […]

[2] = system: IL-6 receptor; test: Flow cytometry of cell-surface IL-6 receptor; type: cell-based, human; settings: U266, 2.5 hours; atovaquone 20 μM, brefeldin A 3 μg/ml
Description: (§2) Annexin V/PI staining was performed using Annexin V:FITC Apoptosis Detection Kit I (BD Biosciences). Staining for cell cycle analysis was performed as previously described (267). Staining for cell-surface receptors was performed in 50 μl PBS+2% FBS with 2 μl antibody to IL6R (BioLegend #352803) or 5 μl antibody to gp130 (BD Biosciences #555757) for 20 minutes on ice in the dark. Cells were washed twice, then resuspended in 300 μl of the same buffer. Samples were analyzed on a BD FACSCanto II machine. Transfection and siRNA Cells were reverse-transfected using Lipofectamine RNAiMAX (Invitrogen); the culture medium was changed 24 hours later. Control siRNA (D-001210-02) and REDD1 siRNA (M-010855-01) were from Thermo Scientific Dharmacon.

[3] = system: gp130; test: Flow cytometry of cell-surface gp130; type: cell-based; settings: U266, 2.5 hours; atovaquone 20 μM, JAK inhibitor 1 1 μM, brefeldin A 3 μg/ml
Description: as §2
Since atovaquone reduced gp130 expression at the cell surface, it was asked whether this effect was accompanied by reduced total gp130 in the cell. To address this question, a time course of atovaquone treatment was performed and total cellular gp130 was measured by Western blotting in U266 cells treated with atovaquone at 20 μM. […] Thus, it was surmised that atovaquone also rapidly downregulates cell-surface gp130, paralleling STAT3 inhibition and preceding the decrease in total gp130. […] Loss of cell-surface gp130 may be due to decreased entry into the plasma membrane or increased internalization. In either case, the decrease in total gp130 observed at longer time points is likely due to degradation of relatively unstable intracellular gp130.

[4] = system: STAT3; test: STAT3-luc reporter cells, IL-6 stimulated luciferase; type: cell-based; settings: 10, 20, 30, or 40 μM for 1 hour, then IL-6 (10 ng/ml) 5 hours; relative to controls
Description: as §1
To determine if atovaquone inhibits STAT3, it was tested in a cell-based reporter system of STAT3 transcriptional activity (Nelson E A, et al. (2008) Nifuroxazide inhibits survival of multiple myeloma cells by directly inhibiting STAT3. Blood 112(13):5095-5102). These cells lack basal STAT3 activation; upon IL-6 treatment, STAT3 becomes activated and drives transcription of a STAT3-dependent luciferase reporter gene. […] Activity of firefly luciferase was measured and normalized by cell viability (Cell Titer Glo). […]
STAT3-luc reporter cells were pre-treated with atovaquone, buparvaquone or TDBHN (concentration 10, 20, 30, or 40 μM) for 1 hour, then stimulated with IL-6 (10 ng/ml) for 5 hours. The activity of firefly luciferase was measured and normalized by cell viability (Cell Titer Glo).

[5] = system: mTOR pathway; test: Western blot of mTOR pathway markers (S6, S6K, 4E-BP1); type: cell-based; settings: U266, 2.5 hours; buparvaquone 12.5 or 25 μM, Sigma analog 1, 5, or 25 μM; relative to vehicle
Description: as §1
K562 cells were treated with atovaquone (20 μM) or rapamycin (10 nM) for 1 hour or 5 hours, then analyzed by Western blot. […] The requirement for prolonged treatment to observe mTOR inhibition raised the possibility that this effect was mediated by an induced factor. To test this hypothesis, cells were pretreated with cycloheximide, a protein synthesis inhibitor. K562 cells were pre-treated with vehicle or cycloheximide (2 μg/ml) for 1 hour, then treated with vehicle or atovaquone (20 μM) for 5 hours. […] Similar results were obtained with actinomycin D, an inhibitor of mRNA synthesis.
To evaluate the role of REDD1, RNA interference was used to knock down its expression in adherent SKBR3 cells, given the relative ease of introducing siRNA into these cells. SKBR3 cells were transfected with control or REDD1 siRNA for 48 hours, then treated with atovaquone (25 μM) for 4 hours.
Next, U266 cells were treated with 12.5 or 25 μM buparvaquone or 1, 5, or 25 μM 2-(4-(trans-decahydronaphth-2-yl)butyl)-3-hydroxy-1,4-naphthoquinone (Sigma analog), or DMSO vehicle control, for 2.5 hours, after which cells were harvested and immunoblots were performed with antibodies for total and phospho STAT3 and total and phospho S6.

Compound	STAT3 phosphorylation with UPR activators [1]	cell-surface expression of gp130 [3]	STAT3 phosphorylation (analogs) [1]	STAT-3 reporter gene expression [4]	S6 phosphorylation (analogs) [5]	also measured
C[C@H]1CCC/C=C/[C@@H]2C[C@H](O)C[C@H]2[C@H](O)/C=C/C(=O)O1 [brefeldin A]	decreased STAT3 phosphorylation	reduced the cell surface expression of both gp130 and IL-6 receptor				cell-surface expression of IL-6 receptor [2]: reduced the cell surface expression of both gp130 and IL-6 receptor
O=C1C(O)=C(CCCCC2CC[C@H]3CCCC[C@@H]3C2)C(=O)c2ccccc21 (relative stereo) [TDBHN, 2-(4-(trans-decahydronaphth-2-yl)butyl)-3-hydroxy-1,4-naphthoquinone]			inhibited STAT3 and S6 phosphorylation at all concentrations tested	inhibited STAT-3 reporter gene expression	inhibited STAT3 and S6 phosphorylation at all concentrations tested	
CC(C)(C)C1CCC(CC2=C(O)C(=O)c3ccccc3C2=O)CC1 (stereo not drawn) [buparvaquone, 2((4-tert-butylcyclohexyl)methyl)-3-hydroxy-1,4-naphthoquinone]			inhibited STAT3 and S6 phosphorylation at all concentrations tested	inhibited STAT-3 reporter gene expression	inhibited STAT3 and S6 phosphorylation at all concentrations tested	
Tunicamycin	only brefeldin A decreased STAT3 phosphorylation					
C/C=C(/C)C(=O)O[C@H]1C(C)=C2[C@H]([C@@H]1OC(=O)CCCCCCC)[C@@](C)(OC(C)=O)C[C@H](OC(=O)CCC)[C@@]1(O)[C@H]2OC(=O)[C@@]1(C)O [Thapsigargin]	only brefeldin A decreased STAT3 phosphorylation					
CC(C)(C)c1nc2c3cc[nH]c(=O)c3c3cc(F)ccc3c2[nH]1 [JAK inhibitor 1]		did not affect gp130 expression				
